Measured values: patent US20080261911A1, “Uses of diphenyl/diphenylamine carboxylic acids” (priority 2006, published 2008)
“Also recorded” adds a separate entry of the source.

Experiments:
VEGFR1 promoter = VEGFR1 promoter (pVEGFR1A-C) luciferase activity in Panc-1 cells; assay type: cell-based; conditions: 50 μM
Description: FIGS. 17A-17D show effects of tolfenamic acid on the VEGFR1 promoter and mRNA expression. Transfection with pVEGFR1-A (FIG. 17A), pVEGFR1-B (FIG. 17B), and pVEGFR1-C (FIG. 17C). Panc-1 cells were transfected with pVEGFR1 constructs, treated with DMSO, 50 μM ampiroxicam, or 50 μM tolfenamic acid, and luciferase activity was determined as described in Materials and Methods. […] Results are shown for a single experiment and similar data was obtained in replicate experiments. Cells are cultured in 6-well plates in 2 ml of DME/F12 medium supplemented with 5% fetal bovine serum. After 16-20 hr when cells are 50-60% confluent, reporter gene constructs are transfected using LIPOFECTAMINE™ reagent (Invitrogen, Carlsbad, Calif.). The effects of the selective non-steroidal anti-inflammatory drugs on transactivation are investigated in Panc1 and L3.6pl cells co-transfected with different VEGF constructs (500 ng). […] For proteasome inhibitor experiments, cells will be co-treated with 2 μM lactacystin, and for electrophoretic mobility shift assay (EMSA), nuclear extracts from Panc1 and L3.6pl cells are isolated as described, and aliquots will be stored at −80° C. until used (Abdelrahim et al, 2004; Abdelrahim et al, 2005).

[1] = system: cleaved poly (ADP-ribose) polymerase (PARP) protein; test: Apoptosis: cleaved PARP in Panc-1 cells, Western blot; assay type: cell-based; conditions: 48 hr
Description: Cells are washed once with phosphate buffered saline PBS and collected by scraping in 200 μL of lysis buffer [50 mM HEPES, 0.5M sodium chloride, 1.5 mM magnesium chloride, 1 mM EGTA, 10% (v/v) glycerol, 1% Triton X-100, 5 μL/ml of Protease Inhibitor Cocktail (Sigma)]. The lysates from the cells are incubated on ice for 1 hr with intermittent vortexing followed by centrifugation at 40,000 g for 10 min at 4° C. Equal amounts of protein (60 μg) from each treatment group are diluted with loading buffer, boiled and loaded onto 10 and 12.5% SDS-polyacrylamide gel. […] Samples are electrophoresed, transferred to membranes, and proteins detected by incubation with polyclonal primary antibodies Sp1, Sp3, Sp4, HDAC, VEGF (a-20), c-Met, surviving, VEGF, cleaved PARP, and β-tubulin (H-235) followed by blotting with appropriate horseradish peroxidase-conjugated secondary antibody as previously described (Abdelrahim et al, 2004). After autoradiography, band intensities are determined by a scanning laser densitometer (Sharp Electronics Corporation, Mahwah, N.J.) using ZERO-D SCANALYTICS software (Scanalytics Corporation, Billerica, Mass.).

[2] = system: VEGF-B/VEGFR1 signaling (MAPK1/2 phosphorylation); test: VEGF-B activation of MAPK in L3.6pl cells; assay type: cell-based, human; conditions: 50 μM pretreatment for 36 hr, VEGF-B 5 or 10 min
Description: Cells were pretreated with DMSO, 50 μM ampiroxicam, or 50 μM tolfenamic acid for 36 hr; VEGF-B (50 ng/ml) was added for 5 or 10 min, and whole cell lysates were obtained and analyzed by Western blot.

Egr-1 protein = Egr-1 protein expression in L3.6pl cells, Western blot; assay type: cell-based, human; conditions: 50 μM, 48 h
Description: Cells are washed once with phosphate buffered saline PBS and collected by scraping in 200 μL of lysis buffer [50 mM HEPES, 0.5M sodium chloride, 1.5 mM magnesium chloride, 1 mM EGTA, 10% (v/v) glycerol, 1% Triton X-100, 5 μL/ml of Protease Inhibitor Cocktail (Sigma)]. The lysates from the cells are incubated on ice for 1 hr with intermittent vortexing followed by centrifugation at 40,000 g for 10 min at 4° C. Equal amounts of protein (60 μg) from each treatment group are diluted with loading buffer, boiled and loaded onto 10 and 12.5% SDS-polyacrylamide gel. For vascular endothelial growth factor immunoblots, 100 μg of protein are used. Samples are electrophoresed, transferred to membranes, and proteins detected by incubation with polyclonal primary antibodies Sp1, Sp3, Sp4, HDAC, VEGF (a-20), c-Met, surviving, VEGF, cleaved PARP, and β-tubulin (H-235) followed by blotting with appropriate horseradish peroxidase-conjugated secondary antibody as previously described (Abdelrahim et al, 2004). After autoradiography, band intensities are determined by a scanning laser densitometer (Sharp Electronics Corporation, Mahwah, N.J.) using ZERO-D SCANALYTICS software (Scanalytics Corporation, Billerica, Mass.).
The proximal region of the VEGFR1 promoter contains GC-rich and Egr-1 sites. […]

[3] = system: VEGF promoter constructs pVEGF1 and pVEGF2; test: VEGF promoter (pVEGF1/pVEGF2) luciferase transactivation in Panc-1 cells; assay type: cell-based; conditions: Panc-1 cells; for transactivation of pVEGF2, concentration dependence: 20-80 μM
Description: Transfection of Panc-1 cells with pVEGF1 and pVEGF2 and treatment with 50 μM ampiroxicam and tolfenamic acid (FIGS. 2A, 2B) or diclofenac sodium (FIGS. 2C, 2D) with pVEGF1 or pVEGF2 constructs. Cells were transfected with pVEGF1 or pVEGF2 treated with DMSO, 50 μM ampiroxicam, tolfenamic acid, or diclofenac sodium, and luciferase activity determined. Transfection of L3.6pl cells with pVEGF1 (FIG. 2E) or pVEGF2 constructs (FIG. 2F). […] Panc-1 cells were transfected with pVEGF2, treated with 20, 40, 60 or 80 μM ampiroxicam or tolfenamic acid, and luciferase determined. Results presented herein are means ±SE for three separate determinations per treatment group, and significant (p<0.05) decrease in luciferase activity is indicated by an asterisk.
Cells are cultured in 6-well plates in 2 ml of DME/F12 medium supplemented with 5% fetal bovine serum. After 16-20 hr when cells are 50-60% confluent, reporter gene constructs are transfected using LIPOFECTAMINE™ reagent (Invitrogen, Carlsbad, Calif.). The effects of the selective non-steroidal anti-inflammatory drugs on transactivation are investigated in Panc1 and L3.6pl cells co-transfected with different VEGF constructs (500 ng). […] For proteasome inhibitor experiments, cells will be co-treated with 2 μM lactacystin, and for electrophoretic mobility shift assay (EMSA), nuclear extracts from Panc1 and L3.6pl cells are isolated as described, and aliquots will be stored at −80° C. until used (Abdelrahim et al, 2004; Abdelrahim et al, 2005).
Previous studies have shown COX-2 inhibitors or small interfering RNAs for Sp proteins decreased vascular endothelial growth factor expression in colon and pancreatic cells (Abdelrahim et al, 2005; Baker et al, 2002; Masferrer et al, 2000; Bouwman et al, 2002). The effects of DMSO, 50 μM tolfenamic acid and 50 μM ampiroxicam on vascular endothelial growth factor expression were initially investigated in Panc-1 cells transfected with the pVEGF1 and pVEGF2 constructs, which contain −2018 to +50 and −131 to +54 VEGF promoter inserts, respectively (FIGS. 2A and 2B).

[4] = system: Sp1, Sp3, and Sp4 proteins; test: Western blot of Sp1, Sp3 and Sp4 protein expression in Panc-1 cells; assay type: cell-based; conditions: for Sp1, Sp3, and Sp4 protein expression: Western blot, vs DMSO

SMILES | luciferase activity, pVEGFR1A, pVEGFR1B and pVEGFR1C (VEGFR1 promoter) | poly (ADP-ribose) polymerase cleavage ([1]; 50 μM) | VEGF-B-induced phosphorylation of MAPK1/2 [2] | Egr-1 protein (Egr-1 protein) | luciferase activity, pVEGF1 and pVEGF2 constructs ([3]; 50 μM) | transactivation of pVEGF2, concentration dependence [3] | decrease in levels of Sp1, Sp3, and Sp4 proteins ([4]; 50 μM, 48 hr) | order of potency for decreased expression of Sp1, Sp3, and Sp4 proteins ([4]; 50 μM, 48 hr) | Sp1, Sp3, and Sp4 protein expression ([4]; 50 μM, 48 hr) | poly (ADP-ribose) polymerase cleavage ([1]; 150 μM) | luciferase activity, pVEGF2 ([3]; 50 μM, in presence or absence of lactacystin) | Sp protein degradation ([4]; 150 μM, 48 hr (concentration of comparable growth inhibition))
Cc1c(Cl)cccc1Nc1ccccc1C(=O)O [tolfenamic acid] | decreased luciferase activity | induced protein degradation and poly (ADP-ribose) polymerase cleavage | decreased phospho-MARK1/2 | unchanged in all treatment groups | significantly decreased activities | concentration-dependent decrease in transactivation | greater than 80% | tolfenamic acid>diclofenac˜diflunisal | decreased expression of Sp1, Sp3, and Sp4 proteins; also recorded: induced protein degradation | – | – | –
CCOC(=O)OC(C)OC1=C(C(=O)Nc2ccccn2)N(C)S(=O)(=O)c2ccccc21 (stereo not drawn) [ampiroxicam] | but not DMSO or ampiroxicam, decreased luciferase activity | – | increased phosphorylation of MAPK1/2 | unchanged in all treatment groups | but not ampiroxicam, significantly decreased activities | showed no effect | – | – | had no effect; also recorded: did not affect Sp protein levels | only tolfenamic acid induced protein degradation and poly (ADP-ribose) polymerase cleavage | did not affect luciferase activity | only tolfenamic acid induced protein degradation
